What was measured:
Assay in all cases: Test A post-emergence
Design in all cases: key: 0 = no effect, 10 = maximum effect; letter = response symbol
morningglory = assay type: in vivo, Ipomoea spp.
Outline: (§1)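 Seeds and tubers were treated preemergence in a growth medium with compound in a nonphytotoxic solvent, against untreated controls; emerged plants such as two-leaf barnyardgrass and five-leaf cotton were sprayed postemergence, against solvent-sprayed controls. After sixteen days in a greenhouse, response was rated visually from 0 to 10.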

cocklebur = assay type: in vivo, Xanthium spp.
Outline: as §1

cassia = assay type: in vivo, Cassia tora
Outline: as §1

nutsedge = assay type: in vivo, Cyperus rotundus
Outline: as §1

barnyardgrass = assay type: in vivo, Echinochloa crusgalli
Outline: as §1

wild oats = assay type: in vivo, Avena fatua
Outline: as §1

corn = assay type: in vivo
Outline: as §1

cotton = assay type: in vivo
Outline: as §1

rice = assay type: in vivo
Outline: as §1

sorghum = assay type: in vivo
Outline: as §1

wheat = assay type: in vivo
Outline: as §1

crabgrass = assay type: in vivo, Digitaria spp.
Outline: as §1

bush bean = assay type: in vivo, bush beans
soybean = assay type: in vivo
Outline: as §1

Compound	response rating (morningglory; 0.4 kg/ha)	response rating (cocklebur; 0.4 kg/ha)	response rating (cassia; 0.4 kg/ha)	response rating (nutsedge; 0.4 kg/ha)	response rating (barnyardgrass; 0.4 kg/ha)	response rating (wild oats; 0.4 kg/ha)	response rating (corn; 0.4 kg/ha)	response rating (cotton; 0.4 kg/ha)	response rating (rice; 0.4 kg/ha)	response rating (sorghum; 0.4 kg/ha)	response rating (wheat; 0.4 kg/ha)	response rating (bush bean; 0.4 kg/ha)	response rating (crabgrass; 0.4 kg/ha)	response rating (soybean; 0.4 kg/ha)	further results
CCOC(=O)c1ccccc1S(=O)(=O)NC(=O)Nc1nc(OC)cc(OC)n1 [drawing 442]	10C	9C	9C	9C	10C	9C	9C	9C	9C	9C	9C	–	–	–	–
CCOC(=O)c1ccccc1S(=O)(=O)NC(=O)Nc1nc(OC)cc(OC)n1 [drawing 441]	–	–	–	–	–	–	–	–	–	–	–	–	–	–	response rating (morningglory; 2 kg/ha): 10C; response rating (cocklebur; 2 kg/ha): 9C; response rating (cassia; 2 kg/ha): 9C; response rating (nutsedge; 2 kg/ha): 9C; response rating (crabgrass; 2 kg/ha): 9C; response rating (barnyardgrass; 2 kg/ha): 10C; response rating (wild oats; 2 kg/ha): 9C; response rating (corn; 2 kg/ha): 9C; response rating (cotton; 2 kg/ha): 9C; response rating (rice; 2 kg/ha): 9C; response rating (sorghum; 2 kg/ha): 10C; response rating (wheat; 2 kg/ha): 9C
COC(=O)c1ccccc1S(=O)(=O)NC(=O)Nc1nc(OC)cc(OC(C)C(=O)OC)n1 (stereo not drawn) [drawing 468]	9C	–	9C	9C	9C	9C	9C	–	9C	9C	9C	9C	9C	9C	–
COc1nc(NC(=O)NS(=O)(=O)c2ccccc2C(=O)OC(C)C)nc(OC)n1 [drawing 438]	10C	10C	9C	9C	8C	2C	–	9C	8C	–	2C	–	6G	–	–
COC(=O)c1ccccc1S(=O)(=O)NC(=O)Nc1nc(C)cc(C)n1 [drawing 412]	10C	10C	9C	9C	10C	9C	9C	9C	10C	9C	9C	9C	9C	9C	response rating (bush bean; 2 kg/ha): 9C; response rating (morningglory; 2 kg/ha): 10C; response rating (cocklebur; 2 kg/ha): 9C; response rating (cassia; 2 kg/ha): 9C; response rating (nutsedge; 2 kg/ha): 9C; response rating (crabgrass; 2 kg/ha): 9C; response rating (barnyardgrass; 2 kg/ha): 10C; response rating (wild oats; 2 kg/ha): 9C; response rating (corn; 2 kg/ha): 9C; response rating (cotton; 2 kg/ha): 9C; response rating (rice; 2 kg/ha): 10C; response rating (sorghum; 2 kg/ha): 10C; response rating (soybean; 2 kg/ha): 6C; response rating (wheat; 2 kg/ha): 9C
COc1cc(C)nc(NC(=O)NS(=O)(=O)c2ccccc2C(=O)OC(C)C)n1 [drawing 437]	9C	10C	9C	9C	10C	–	9C	10C	8C	10C	–	–	–	–	–
COc1nc(NC(=O)NS(=O)(=O)c2ccccc2C(=O)OCCCl)nc(OC)n1 [drawing 422]	10C	10C	10C	10C	–	–	–	9C	6G	–	1C	9C	2C	–	–
COc1cc(C)nc(NC(=O)NS(=O)(=O)c2ccccc2C(=O)OCCOCCOCCCl)n1 [drawing 448]	10C	9C	9C	–	10C	9C	–	9C	8C	–	9C	9C	–	8C	–
COC(=O)c1ccccc1S(=O)(=O)NC(=O)Nc1nc(C)nc(N(C)C)n1 [drawing 472]	10C	9C	9C	8G	10C	9C	9C	9C	10C	10C	9C	9C	–	9C	–
CCCCOC(=O)c1ccccc1S(=O)(=O)NC(=O)Nc1nc(OC)cc(OC)n1 [drawing 439]	9C	9C	–	–	9C	–	–	–	–	–	–	–	–	–	response rating (morningglory; 2 kg/ha): 10C; response rating (cocklebur; 2 kg/ha): 9C; response rating (cassia; 2 kg/ha): 9C; response rating (nutsedge; 2 kg/ha): 9C; response rating (barnyardgrass; 2 kg/ha): 10C; response rating (wild oats; 2 kg/ha): 9C; response rating (corn; 2 kg/ha): 9C; response rating (cotton; 2 kg/ha): 9C; response rating (rice; 2 kg/ha): 9C; response rating (sorghum; 2 kg/ha): 9C; response rating (wheat; 2 kg/ha): 9C
COC(=O)c1ccccc1S(=O)(=O)NC(=O)Nc1nc(OC)cc(OC)n1 [drawing 414]	10C	9C	9C	10C	9C	9C	9C	9C	8C	9C	9C	9C	–	9C	–
COC(=O)c1ccccc1S(=O)(=O)NC(=O)Nc1nc(C)nc(OC)n1 [drawing 415]	10C	9C	–	9C	10C	10C	10C	9C	10C	10C	10C	9C	10C	9C	–
COc1cc(C)nc(NC(=O)NS(=O)(=O)c2ccccc2C(=O)SC2CCCCC2)n1 [drawing 476]	10C	9C	9C	10C	9C	9C	–	9C	9C	9C	–	9C	–	–	–
COc1cc(OC)nc(NC(=O)NS(=O)(=O)c2ccccc2C(=O)OC(C)C)n1 [drawing 436]	10C	10C	9C	9C	9C	6C	–	9C	7C	9C	–	–	6C	–	–

— patent US4383113A, “Agricultural sulfonamides” (E. I. Du Pont de Nemours and Company, priority 1981, dated 1983)
